Measured values taken from patent US20190127366A1 (LifeSci Pharmaceuticals, Inc., priority 2015, published 2019).
Where two headings read alike, the source gives them in different places.

Biological target: T1, human complement factor D (Homo sapiens, UniProt P00746)
T1 construct: purchased R&D Systems 1824-SE
Assay: In vitro enzyme inhibition (Z-Lys-SBzl/DTNB absorbance assay)
Format: biochemical
Procedure, shortened: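 Factor D (6.25 ng/μL before addition) preincubated 5 min RT with compound (8 points from 50 μM, 6-fold, 0.5% DMSO final) in 50 mM Tris/HCl pH 7.5, 1 M NaCl, then Z-Lys-SBzl/DTNB added (200 μM each before addition). A405 read kinetically every 30 s for 60 min; IC50 from variable-slope fit, controls with and without enzyme.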

[1] = Complement Factor D (R&D Systems), substrate Z-Lys-SBzl, A405 nm, read-out: CFD IC50

T1 sequence (P00746 26-253): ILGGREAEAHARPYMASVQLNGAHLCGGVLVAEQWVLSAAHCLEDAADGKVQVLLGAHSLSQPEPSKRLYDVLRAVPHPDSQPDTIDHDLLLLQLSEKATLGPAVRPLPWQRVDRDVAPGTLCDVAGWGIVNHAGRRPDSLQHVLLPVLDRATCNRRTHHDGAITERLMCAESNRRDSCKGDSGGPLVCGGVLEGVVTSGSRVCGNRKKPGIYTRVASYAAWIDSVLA

Row | IC50 [1] | SMILES | IC50
1 | 0.1 to 1 µM | NC(=O)c1nn(CC(=O)N2CCCC[C@H]2C(=O)Nc2cccc(Br)n2)c2ccccc12 [Example 20, (S)-1-(2-(2-((6-bromopyridin-2-yl)carbamoyl)piperidin-1-yl)-2-oxoethyl)-1H-indazole-3-carboxamide] | 
2 | 0.1 to 1 µM | NC(=O)c1nn(CC(=O)N2[C@@H]3CC[C@@H](C3)[C@H]2C(=O)Nc2cccc(Cl)n2)c2ccc(N)cc12 [Example 75, 5-amino-1-(2-((1R,3S,4S)-3-((6-chloropyridin-2-yl)carbamoyl)-2-azabicyclo[2.2.1]heptan-2-yl)-2-oxoethyl)-1H-indazole-3-carboxamide] | 
3 | 0.1 to 1 µM | NC(=O)c1nn(CC(=O)N2[C@@H]3CC[C@@H](C3)[C@H]2C(=O)Nc2cccc(Cl)n2)c2ccncc12 [Example 95, 1-(2-((1R,3S,4S)-3-((6-chloropyridin-2-yl)carbamoyl)-2-azabicyclo[2.2.1]heptan-2-yl)-2-oxoethyl)-1H-pyrazolo[4,3-c]pyridine-3-carboxamide] | 
4 | 0.1 to 1 µM | CCOC(=O)[C@@H]1C[C@@H](C(=O)NCc2cccc(Cl)c2F)N1C(=O)Cn1nc(C(N)=O)c2ccccc21 (relative stereo) [Example 194, trans-ethyl 1-(2-(3-carbamoyl-1H-indazol-1-yl)acetyl)-4-((3-chloro-2-fluorobenzyl)carbamoyl)azetidine-2-carboxylate] | 
5 | 1 to 10 µM | NC(=O)c1nn(CC(=O)N2[C@@H]3CC[C@@H](C3)[C@H]2C(=O)Nc2cccc(OC(F)(F)F)c2F)c2ccccc12 [Example 41, 1-(2-((1R,3S,4S)-3-((2-fluoro-3-(trifluoromethoxy)phenyl)carbamoyl)-2-azabicyclo[2.2.1]heptan-2-yl)-2-oxoethyl)-1H-indazole-3-carboxamide] | 
6 | 0.1 to 1 µM | NC(=O)c1nn(CC(=O)N2[C@@H]3CC[C@@H](C3)[C@H]2C(=O)Nc2cccc(Cl)n2)c2cnccc12 [Example 2, 1-(2-((1R,3S,4S)-3-((6-chloropyridin-2-yl)carbamoyl)-2-azabicyclo[2.2.1]heptan-2-yl)-2-oxoethyl)-1H-pyrazolo[3,4-c]pyridine-3-carboxamide] | 
7 | 0.1 to 1 µM | N#Cc1cc(Cl)nc(NC(=O)[C@@H]2[C@H]3CC[C@H](C3)N2C(=O)Cn2nc(C(N)=O)c3ccccc32)c1 [Example 102, 1-(2-((1R,3S,4S)-3-((6-chloro-4-cyanopyridin-2-yl)carbamoyl)-2-azabicyclo[2.2.1]heptan-2-yl)-2-oxoethyl)-1H-indazole-3-carboxamide] | 
8 | 0.1 to 1 µM | NC(=O)c1nn(CC(=O)N2[C@H](C(=O)Nc3cccc(Cl)n3)C[C@@H]3CCC[C@@H]32)c2cc(F)ccc12 [Example 172, 1-(2-((2S,3aS,6aS)-2-((6-chloropyridin-2-yl)carbamoyl)hexahydrocyclopenta[b]pyrrol-1(2H)-yl)-2-oxoethyl)-6-fluoro-1H-indazole-3-carboxamide 2,2,2-trifluoroacetate] | 
9 | > 10 µM | O=C(Nc1cccc(Cl)n1)[C@@H]1[C@H]2CC[C@H](C2)N1C(=O)Cn1nc(C(=O)N2CCC2)c2ccccc21 [Example 86, (1R,3S,4S)-2-(2-(3-(azetidine-1-carbonyl)-1H-indazol-1-yl)acetyl)-N-(6-chloropyridin-2-yl)-2-azabicyclo[2.2.1]heptane-3-carboxamide] | 
10 | 0.1 to 1 µM | CC(=O)c1nn(CC(=O)N2[C@@H]3CC[C@@H](C3)[C@H]2C(=O)Nc2cccc(Cl)n2)c2ccc(C#N)cc12 [Example 92, (1R,3S,4S)-2-(2-(3-acetyl-5-cyano-1H-indazol-1-yl)acetyl)-N-(6-chloropyridin-2-yl)-2-azabicyclo[2.2.1]heptane-3-carboxamide] | 
11 | 1 to 10 µM | NC(=O)c1nn(CC(=O)N2[C@@H]3CC[C@@H](C3)[C@H]2C(=O)NC(C(=O)O)c2cccc(Cl)c2F)c2ccccc12 (stereo partly drawn) [Example 137, 2-((1R,3S,4S)-2-(2-(3-carbamoyl-1H-indazol-1-yl)acetyl)-2-azabicyclo[2.2.1]heptane-3-carboxamido)-2-(3-chloro-2-fluorophenyl)acetic acid] | 
12 | > 10 µM | NC(=O)c1nn(CC(=O)N2[C@@H]3CC[C@@H](C3)[C@H]2C(=O)NCc2ccc3[nH]cc(Cl)c3c2F)c2ccccc12 [Example 47, 1-(2-((1R,3S,4S)-3-(((3-chloro-4-fluoro-1H-indol-5-yl)methyl)carbamoyl)-2-azabicyclo[2.2.1]heptan-2-yl)-2-oxoethyl)-1H-indazole-3-carboxamide] | 
13 | 0.1 to 1 µM | N#CC(NC(=O)[C@@H]1[C@H]2CC[C@H](C2)N1C(=O)Cn1nc(C(N)=O)c2ccccc21)c1cccc(Cl)c1F (stereo partly drawn) [Example 141, 1-(2-((1R,3S,4S)-3-(((3-chloro-2-fluorophenyl)(cyano)methyl)carbamoyl)-2-azabicyclo[2.2.1]heptan-2-yl)-2-oxoethyl)-1H-indazole-3-carboxamide] | 
14 |  | CC(=O)N1CCN(C(=O)Cn2nc(C(N)=O)c3ccccc32)[C@H](C(=O)Nc2cccc(C(F)(F)F)n2)C1 [Example 30, (S)-1-(2-(4-acetyl-2-((6-(trifluoromethyl)pyridin-2-yl)carbamoyl)piperazin-1-yl)-2-oxoethyl)-1H-indazole-3-carboxamide] | 1 to 10 µM
15 | > 10 µM | CC(=O)N1CCCN(C(=O)Cn2nc(C(N)=O)c3ccccc32)C(C(=O)NCc2cccc(Cl)c2F)C1 (stereo not drawn) [Example 34, 1-(2-(4-acetyl-2-((3-chloro-2-fluorobenzyl)carbamoyl)-1,4-diazepan-1-yl)-2-oxoethyl)-1H-indazole-3-carboxamide] | 
16 | 0.1 to 1 µM | COc1ccc2c(c1)c(C(C)=O)nn2CC(=O)N1[C@@H]2CC[C@@H](C2)[C@H]1C(=O)Nc1cccc(Cl)n1 [Example 79, (1R,3S,4S)-2-(2-(3-acetyl-5-methoxy-1H-indazol-1-yl)acetyl)-N-(6-chloropyridin-2-yl)-2-azabicyclo[2.2.1]heptane-3-carboxamide] | 
17 | 0.1 to 1 µM | COc1ccc2c(c1)c(C(C)=O)nn2CC(=O)N1[C@H](C(=O)Nc2cccc(Cl)n2)C[C@@H]2CCC[C@@H]21 [Example 175, (2S,3aS,6aS)-1-(2-(3-acetyl-5-methoxy-1H-indazol-1-yl)acetyl)-N-(6-chloropyridin-2-yl)octahydrocyclopenta[b]pyrrole-2-carboxamide] | 
18 | 1 to 10 µM | NC(=O)c1nn(CC(=O)N2[C@@H]3CC[C@@H](C3)[C@H]2C(=O)NCc2ccc(Cl)c(Cl)c2)c2ccccc12 [Example 72, 1-(2-((1R,3S,4S)-3-((3,4-dichlorobenzyl)carbamoyl)-2-azabicyclo[2.2.1]heptan-2-yl)-2-oxoethyl)-1H-indazole-3-carboxamide] | 
19 | 0.1 to 1 µM | CC(=O)c1nn(CC(=O)N2[C@@H]3CC[C@@H](C3)[C@H]2C(=O)Nc2cccc(Cl)n2)c2ccc(Cl)cc12 [Example 87, (1R,3S,4S)-2-(2-(3-acetyl-5-chloro-1H-indazol-1-yl)acetyl)-N-(6-chloropyridin-2-yl)-2-azabicyclo[2.2.1]heptane-3-carboxamide] | 
20 | 0.1 to 1 µM | CC(=O)c1nn(CC(=O)N2[C@H](C(=O)Nc3cccc(Cl)n3)C[C@@H]3CCC[C@@H]32)c2ccc(Cl)cc12 [Example 178, (2S,3aS,6aS)-1-(2-(3-acetyl-5-chloro-1H-indazol-1-yl)acetyl)-N-(6-chloropyridin-2-yl)octahydrocyclopenta[b]pyrrole-2-carboxamide] | 
21 | 1 to 10 µM | NC(=O)c1nn(CC(=O)N2[C@H]3CC[C@H](CC3)[C@@H]2C(=O)NCc2cccc(Cl)c2F)c2ccccc12 [Example 148, (1S,3R,4S)-2-(2-(3-carbamoyl-1H-indazol-1-yl)acetyl)-N-(3-chloro-2-fluorobenzyl)-2-azabicyclo[2.2.2]octane-3-carboxamide] | 
22 | 0.1 to 1 µM | NC(=O)c1nn(CC(=O)N2[C@H](C(=O)Nc3cccc(Cl)n3)C[C@@H]3CCC[C@@H]32)c2cnccc12 [Example 177, 1-(2-((2S,3aS,6aS)-2-((6-chloropyridin-2-yl)carbamoyl)hexahydrocyclopenta[b]pyrrol-1(2H)-yl)-2-oxoethyl)-1H-pyrazolo[3,4-c]pyridine-3-carboxamide] | 
23 | > 10 µM | NC(=O)c1nn(CC(=O)N2[C@@H](C(=O)Nc3cccc(Cl)n3)C[C@H]3CCC[C@H]32)c2ccccc12 [Example 171, 1-(2-((2R,3aR,6aR)-2-((6-chloropyridin-2-yl)carbamoyl)hexahydrocyclopenta[b]pyrrol-1(2H)-yl)-2-oxoethyl)-1H-indazole-3-carboxamide] | 
24 | 1 to 10 µM | NC(=O)c1nn(CC(=O)N2[C@H](C(=O)O)C[C@H]2C(=O)NCc2cccc(Cl)c2F)c2ccccc12 (relative stereo) [Example 195, trans-1-(2-(3-carbamoyl-1H-indazol-1-yl)acetyl)-4-((3-chloro-2-fluorobenzyl)carbamoyl)azetidine-2-carboxylic acid] | 
25 | > 10 µM | NC(=O)c1nn(CC(=O)N2[C@@H]3CC[C@@H](C3)[C@H]2C(=O)NCc2cccc(Cl)n2)c2ccccc12 [Example 52, 1-(2-((1R,3S,4S)-3-(((6-chloropyridin-2-yl)methyl)carbamoyl)-2-azabicyclo[2.2.1]heptan-2-yl)-2-oxoethyl)-1H-indazole-3-carboxamide] | 
26 | 1 to 10 µM | NC(=O)c1nn(CC(=O)N2C(C(=O)NCc3cccc(Cl)n3)[C@@H]3C[C@@H](O)[C@H]2[C@H]3O)c2ccccc12 (stereo partly drawn) [Example 154, 1-(2-((1S,4S,6R,7S)-3-(((6-chloropyridin-2-yl)methyl)carbamoyl)-6,7-dihydroxy-2-azabicyclo[2.2.1]heptan-2-yl)-2-oxoethyl)-1H-indazole-3-carboxamide] | 

Row | SMILES | IC50 [1] | IC50
27 | NC(=O)c1nn(CC(=O)N2[C@@H]3CC[C@@H](C3)[C@H]2C(=O)NCc2c(C(=O)O)ccc(Cl)c2F)c2ccccc12 [Example 117, 2-(((1R,3S,4S)-2-(2-(3-carbamoyl-1H-indazol-1-yl)acetyl)-2-azabicyclo[2.2.1]heptane-3-carboxamido)methyl)-4-chloro-3-fluorobenzoic acid] | 1 to 10 µM | 
